Results published in patent US20240277739A1, “NUTRITONAL COMPOSITIONS FOR GUT BARRIER FUNCTION” (N.V. Nutricia, priority 2021, published 2024).

How the values were obtained:
[1] = test system: interleukin-8 (IL-8 or CXCL8) release; test: DON-induced IL-8 (CXCL8) release from Caco-2 cells, ELISA; format: cell-based, human; conditions: DON 4.2 μM alone
Method: (§1) beta1,3′-galactosyl-lactose (beta3′-GL), beta1,4′-galactosyllactose (beta4′-GL) and beta1,6′-galactosyl-lactose (beta6′-GL) were obtained from Carbosynth (Berkshire, UK), alpha1,3′-galactosyl-lactose (alpha3′-GL) was obtained from Elicityl (Crolles, France). Purified deoxydivalenol (DON) (D0156; Sigma Aldrich, St Luis, MO, USA) was dissolved in pure ethanol and stored at −20° C. Human epithelial colorectal adenocarcinoma (Caco-2) cells were obtained from American Type Tissue Collection (Code HTB-37) (Manasse, VA, USA, passage 90-102).
Caco-2 cells were used according to established methods. […] After 17-19 days of culturing, a confluent monolayer was obtained with a mean Transepithelial electrical resistance (TEER) exceeding 400 Ω cm^2 measured by a Millicell-Electrical Resistance System voltohm-meter (Millipore, Temecula, CA, USA). […]
Measurements of the transepithelial electrical resistance (TEER) and lucifer yellow (LY) permeability were conducted to investigate barrier integrity. […] Results are expressed as a percentage of the initial value. […] Release of interleukin-8 (IL-8 or CXCL8), which is a typical marker for inflammation, was quantified in the medium of the apical side and the basolateral side of the Caco-2 transwell inserts in response to the treatments. […]

[2] = test system: T84 human intestinal epithelial cells; test: TEER of T84 monolayers pre-incubated with fatty acids, SCFA mix or combination; format: cell-based; conditions: for % TEER (24 h): relative to medium control at 24 h; for increase of gut barrier function (TEER) versus control: fatty acid 50 μM in combination with SCFA 40 mM; for increase of gut barrier function (TEER) versus control / change of gut barrier function (TEER) versus control: 24 h; for increase of gut barrier function expected for an additive effect: fatty acid 50 μM plus SCFA 40 mM; for change of gut barrier function (TEER) versus control: single ingredient: fatty acid 50 μM or SCFA mix 40 mM
Excerpt: The effect of palmitic acid and oleic acid combined with a mixture of short chain fatty acids (SCFA mix) having a concentration profile that is typical for fermentation of a mixture of galacto-oligosaccharides (GOS) derived from VivinalGOS and long chain fructo-oligosaccharides (RaftilineHP) in a ratio of 9/1 (w/w) on barrier permeability was investigated. The concentration profiles of SCFA is as disclosed in Example 3 of EP2100520 (incorporated by reference herein), specifically as shown in FIG. 3A of EP2100520 (incorporated by reference herein) (see second bar in FIG. 3A), i.e. about 75% being acetic acid. Oleic acid and palmitic acid were obtained from Sigma-Aldrich and coupled to fatty acid free Bovine Serum Albumin (BSA, Sigma-Aldrich) prior to cell treatment.
T84 human intestinal epithelial cells are commonly used to study intestinal barrier integrity in vitro. T84 cells (ATCC, USA) were cultured on 12 mm transwell inserts (0.4 μm, Corning Costrar, USA) in DMEM-F12 glutamax with penicillin-streptomycin (100 IU/ml), supplemented with […]. T84 cells were used 14 days after reaching confluence. Monolayers of T84 cultured on transwell filters were pre-incubated with fatty acids, SCFA mix or a combination thereof for a period of 24 hours.
Epithelial barrier integrity was assessed by measuring transepithelial resistance (TEER; Ω×cm^2) with the epithelial volt-ohm meter (Millicell ERS-2; Millipore USA). TEER measurements were performed at 0, 24, h of incubation. TEER values of the fatty acids (i.e. SCFA, OA, PA) are expressed relative to the medium control TEER values at 24 h.

Caco-2 cell monolayer [3] = test: TEER of Caco-2 monolayer, DON-induced impairment of barrier integrity; format: cell-based, human; conditions: for TEER in the presence of DON (FIG. 3), single ingredient, in words: DON 4.2 μM, 0.75 wt % beta3′-GL or 600 μM fatty acid alone; for effect on DON-induced loss of epithelial barrier integrity, TEER (FIGS. 1A, 1B), in words: 0.75 wt. % GL, 24 h pretreatment, then DON 4.2 μM 24 h
Method: as §1
(§2) Caco-2 cells were used according to established methods. In brief: cells were cultured in Dulbecco's modified Eagle medium (DMEM) and seeded at a density of 0.3×10^5 cells into 0.3 cm^2 high pore density (0.4 μm) inserts with a polyethylene terephthalate membrane (BD Biosciences, Franklin Lakes, NJ, USA) placed in a 24-well plate. The Caco-2 cells were maintained in a humidified atmosphere of 95% air and 5% CO2 at 37° C. After 17-19 days of culturing, a confluent monolayer was obtained with a mean Transepithelial electrical resistance (TEER) exceeding 400 Ω cm^2 measured by a Millicell-Electrical Resistance System voltohm-meter (Millipore, Temecula, CA, USA).
(§3) Caco-2 cell monolayers were thus grown in a transwell system, which is a model for intestinal barrier function. The monolayers were pretreated for 24 h with different GLs, including beta3′-GL, alpha3′-GL, beta4′-GL and beta6′-GL in a concentration of 0.75 wt. % of the GL, before being exposed to the fungal toxin deoxynivalenol (DON), which is a trigger and model compound to impair intestinal barrier. DON was diluted to a final concentration of 4.2 μM in complete cell medium and added to the apical side as well as to the basolateral side of the transwell inserts. […] Incubation with DON was 24 h.
(§4) Measurements of the transepithelial electrical resistance (TEER) and lucifer yellow (LY) permeability were conducted to investigate barrier integrity. For TEER measurements a Millicel-ERS voltohmmeter connected to a pair of chopsticks electrodes was used to measure the TEER values. Results are expressed as a percentage of the initial value. For paracellular tracer flux assay the membrane impermeable lucifer yellow (LY) (Sigma, St Luis, MO, USA) was added in a concentration of 16 μg/ml to the apical compartment in the transwell plate for 4 h, and the paracellular flux was determined by measuring the fluorescence intensity in the basolateral compartment with a spectrophotofluorimeter (FLUOstar Optima, BMG Labtech, Offenburg, Germany) set at excitation and emission wavelengths of 410 and 520 nm, respectively. Release of interleukin-8 (IL-8 or CXCL8), which is a typical marker for inflammation, was quantified in the medium of the apical side and the basolateral side of the Caco-2 transwell inserts in response to the treatments. CXCL8 concentrations were measured by using the human IL-8 ELISA assay (BD Biosciences, Pharmingem, San Diego, CA, USA) according to manufacturer's instructions. For more details on materials and methods see Akbari et al, 2016, Eur J Nutr. 56(5):1919-1930.
(§5) For TOS concentrations of 0.25 wt. % (TOS 0.25) and 0.5 wt. % (TOS 0.5) were tested.
(§6) Barrier function experiments were performed using the method as described in example 3. Oleic acid (OA) and palmitic acid were obtained from Sigma-Aldrich. Palmitic acid was coupled to fatty acid free Bovine Serum Albumin (BSA, Roche) to make a 6:1 BSA-palmitic acid conjugate solution, which is needed to dissolve palmitic acid in culture medium and therefore common practice in the field (reference Alsabeeh et al, Biochim. Biophys Acta. 2018 February; 1863(2): 143-151). Throughout this document this conjugate solution will be abbreviated as PA.

Caco-2 cell monolayer [4] = test: TEER of Caco-2 monolayer with OA, PA, beta3′-GL and combinations (no DON); format: cell-based, human; conditions: for effect on TEER at 100 μM fatty acid, in words: data not shown
Method: as §2, §4, §6
Tables 5a and 5b show the effects of OA and PA and beta3′-GL and its combinations on the intestinal barrier function as measured by TEER.

Caco-2 cell monolayer [5] = test: Lucifer yellow (LY) paracellular flux across Caco-2 monolayer, DON-induced impairment; format: cell-based, human; conditions: for effect on DON-induced loss of epithelial barrier integrity, LY flux (FIGS. 1C, 1D), in words: 0.75 wt. % GL, 24 h pretreatment, then DON 4.2 μM 24 h
Method: as §1, §2, §3, §4, §5
Barrier function experiments were performed using the method as described in example 3. Oleic acid (OA) and palmitic acid were obtained from Sigma-Aldrich. […]

[6] = test system: infant microbiota (pooled fecal samples from 3 healthy infants); test: Fermentation of galactosyllactoses by infant fecal microbiota (i-Screen anaerobic colon model); set-up: species or system human; acetate / lactate: unit not given here; conditions: for acetate / lactate: t = 24 h
Method: The effect of pure 3′-GL, 4′-GL, and 6′-GL of the three galactosyllactoses functionality (pH, lactate, acetate levels) was evaluated. Beta1,3-galactosyllactose (beat3′-GL), beta1,4-galactosyllactose (beta4′-GL) and beta1,6-galactosyllactose (beta6′-GL) were obtained from Carbosynth (Berkshire, UK) Measurements of all parameters were performed after a 24-hour incubation in the high-throughput anaerobic colon model, i-Screen™ (TNO, Zeist, the Netherlands).
Fecal samples from 3 healthy infants (aged 1-4 months) were pooled and activated for 4 hours in a modified standard ileal efflux medium (pH 6.0) at 37° C. under anaerobic conditions. Next, each GL was added. After an incubation for 24 hours at 37° C. under anaerobic conditions, samples were collected for further analysis and pH levels were immediately measured using a pH meter MultiCal pH 526 (WTW, Weilheim, Germany). The samples were centrifuged at 4,000 g for 5 minutes and the supernatant was filter sterilized using 0.45 μm filters. For the SCFA analysis, a mixture of formic acid ([…]), methanol and 2-ethyl butyric acid (internal standard, 2 mg/ml in methanol) was added to the filtered supernatant. A 3 μl sample with a split ratio of 75.0 was injected on a GC-column (ZB-5HT inferno, ID 0.52 mm, film thickness 0.10 μm; Zebron; phenomenex, USA) in a Shimadzu GC-2014 gas chromatograph. The levels of acetic acid and lactic acid were measured. For lactate analysis, the total of D- and L-lactate was determined the filtered supernatant by the Arena 20XL analyser. This assay is based on the D- and L-lactic acid assay kits (Thermo Fisher Scientific oy, www.e-labeling.eu/TSF9843061FU and www.e-labeling.eu/TSF9843081FU). The assay was performed following the manufacturer's instructions with one adaptation: the reagents DLac RI and LLac RI from the two kits were mixed in a 1:1 ratio to detect both L and D isomers of lactic acid simultaneously. Calibration of the assay was done with an ‘Acid combination standard’ (order number 984382) containing both L-lactic acid and D-lactic acid.

[7] = fatty acid 50 μM + SCFA mix 40 mM
[8] = fatty acid 50 μM, SCFA mix 0 mM

Compound | TEER in the presence of DON (FIG. 3), single ingredient, in words (Caco-2 cell monolayer [3]) | effect on DON-induced loss of epithelial barrier integrity, TEER (FIGS. 1A, 1B), in words (Caco-2 cell monolayer [3]) | effect on DON-induced loss of epithelial barrier integrity, LY flux (FIGS. 1C, 1D), in words (Caco-2 cell monolayer [5]) | acetate ([6]; 3 mg/ml) | lactate ([6]; 3 mg/ml) | acetate ([6]; 9 mg/ml) | lactate ([6]; 9 mg/ml) | other results
CC1=C[C@H]2O[C@@H]3[C@H](O)C[C@](C)([C@@]2(CO)[C@H](O)C1=O)[C@]31CO1 [DON, deoxynivalenol] |  |  |  |  |  |  |  | CXCL8 (IL-8) release (FIG. 2), in words [1]: increased CXCL8 (IL-8) release
CCCCCCCC/C=C\CCCCCCCC(=O)O [OA, oleic acid] | somewhat higher than in the control |  |  |  |  |  |  | % TEER (24 h) [2, 7]: 210%; increase of gut barrier function (TEER) versus control [2]: 110%; increase of gut barrier function expected for an additive effect [2]: 94%; % TEER (24 h) [2, 8]: 134%; change of gut barrier function (TEER) versus control [2]: 34%; effect on TEER at 100 μM fatty acid, in words (Caco-2 cell monolayer [4]): improving effect on TEER was also observed; % TEER (24 h) (Caco-2 cell monolayer [4]; Table 5a: oleic acid 600 μM, beta3′GL 0, relative to the medium control): 138%
CCCCCCCCCCCCCCCC(=O)O [PA, palmitic acid] | did not improve the TEER in the presence of DON |  |  |  |  |  |  | % TEER (24 h) [2, 7]: 143%; increase of gut barrier function (TEER) versus control [2]: 43%; increase of gut barrier function expected for an additive effect [2]: 54%; % TEER (24 h) [2, 8]: 94%; change of gut barrier function (TEER) versus control [2]: −6%; gut barrier function by LYF assay, fatty acid alone, in words (Caco-2 cell monolayer [5]; DON model, data not shown): A similar effect was observed; effect on TEER at 100 μM fatty acid, in words (Caco-2 cell monolayer [4]): This effect on TEER was also observed; % TEER (24 h) (Caco-2 cell monolayer [4]; Table 5b: palmitic acid 600 μM, 3′GL 0): 69%
OC[C@H]1O[C@H](O[C@H]2[C@@H](O)[C@@H](CO)O[C@@H](O[C@H]3[C@H](O)[C@@H](O)C(O)O[C@@H]3CO)[C@@H]2O)[C@H](O)[C@@H](O)[C@H]1O (stereo partly drawn) [alpha3′-GL, Gal (alpha 1-3)-Gal (beta 1-4)-Glc] |  | did not prevent the DON-induced disrupted intestinal barrier | did not prevent the DON-induced disrupted intestinal barrier |  |  |  |  | 
OC[C@H]1O[C@@H](O[C@@H]2[C@H](O)[C@@H](O)[C@H](O[C@H]3[C@H](O)[C@@H](O)C(O)O[C@@H]3CO)O[C@@H]2CO)[C@H](O)[C@@H](O)[C@H]1O (stereo partly drawn) [beta4′-GL, Gal (beta 1-4)-Gal (beta 1-4)-Glc] |  | did not show a significant effect | did not show a significant effect | 52.2 | 0.0 | 65.4 | 3.6 | 
OC[C@H]1O[C@@H](OC[C@H]2O[C@@H](O[C@H]3[C@H](O)[C@@H](O)C(O)O[C@@H]3CO)[C@H](O)[C@@H](O)[C@H]2O)[C@H](O)[C@@H](O)[C@H]1O (stereo partly drawn) [beta6′-GL, Gal (beta 1-6) Gal (beta 1-4)-Glc] |  | did not show a significant effect | did not show a significant effect | 51.9 | 0.0 | 74.3 | 2.7 | 
Gal (beta 1-3)-Gal (beta 1-4)-Glc [beta3′-GL] | somewhat higher than in the control | increased TEER values | reduction in the DON-affected LY flux | 61.3 | 0.0 | 77.1 | 1.3 | pH, acetate and lactate after fermentation, in words ([6]; 24 h incubation): the highest levels of acetate and lactate and the lowest pH level; beta3′-GL concentration at which the effect on gut barrier function is observed (Caco-2 cell monolayer [3]; beta3′-GL content of the TOS tested, DON model): lower than 0.17 wt. %; % TEER (24 h) (Caco-2 cell monolayer [4]; Table 5a: beta3′GL 0.75 w/v %, oleic acid 0, relative to the medium control): 117%; % TEER (24 h) (Caco-2 cell monolayer [4]; Table 5b: 3′GL 0.75, palmitic acid 0): 129%
